System: C57BL/6 mice
Experiment: In vivo toxicity in C57BL/6 mice (body weight, serum cytokines, liver and kidney function, H&E)
Set-up: species or system mouse
Conditions: for Body weight: C57BL/6 mice, 6 days, MTOB 400 and 800, NSC95397 2 and 4, C646 5 and 10, A-485 40 and 80, TPCA1 10 and 20, BOT64 30 and 60 mg/kg
Method: Whole blood samples were allowed to stand undisturbed at room temperature for 15 min before being centrifuged at 1,000 × g for 10 min. The supernatant serum and BALF were used to measure concentrations of IL-1β, IL-6, IL-15, IL-18, and TNF-α with specific enzyme-linked immunosorbent assay (ELISA) kits as per manufacturer guidelines. The ELISA kits used were: IL-1β (Thermo Fisher; #KMC0011), IL-6 (Thermo Fisher; #KMC0061), IL-15 (Abcam; Shanghai, China; #ab275898), IL-18 (Thermo Fisher; #BMS618-3), and TNF-α (Thermo Fisher; #BMS607-3). Total BALF protein levels were measured using the BCA Protein Assay Kit (Abcam; #ab102536) according to the manufacturer’s protocol.
Serum activities or levels of alanine aminotransferase (ALT), aspartate aminotransferase (AST), alkaline phosphatase (ALP), blood urea nitrogen (BUN), and creatinine were measured using commercially available assay kits, including the ALT Activity Assay Kit (Abcam; #ab105134), AST Activity Assay Kit (Abcam; #ab105135), ALP Assay Kit (Abcam; #ab83369), BUN Colorimetric Detection Kit (Thermo Fisher; #EIABUN), and Creatinine Assay Kit (Abcam; #ab65340). All experimental procedures were conducted according to the respective manufacturer’s protocols.
Lung, heart, liver, and kidney tissues were collected from various groups of mice, including ARDS, ARDS + MTOB, ARDS + NSC95397, ARDS + C646, ARDS + A-485, ARDS + TPCA1, ARDS + BOT64, and ARDS + PNSC928. The tissues were fixed in 10% neutral-buffered formalin (Sigma-Aldrich; #HT501128) for 48 h, then dehydrated through a graded ethanol series (70%, 80%, 90%, and 100%, for 30 min each). The dehydrated tissues were embedded in paraffin blocks and allowed to solidify. The paraffin blocks were sectioned at 5 μm, with the sections floated on a water bath to remove wrinkles before being transferred onto glass slides. The slides were dried, dewaxed with xylene, and rehydrated through a reverse ethanol series (100%, 90%, 80%, and 70%, for 30 min each), followed by a final rinse in distilled water. The rehydrated sections were stained using the Hematoxylin and Eosin Kit (Abcam; #ab245880) according to the manufacturer’s guidelines. After staining, the sections were dehydrated through a graded ethanol series (70%, 80%, 90%, and 100%, for 30 min each), then cleared with xylene. The sections were mounted with a mounting medium (Abcam; #ab64230) and imaged using a Nikon light microscope for tissue morphology.
C57BL/6 mice were administrated with MTOB (400 and 800 mg/kg), NSC95397 (2 and 4 mg/kg), C646 (5 and 10 mg/kg), A-485 (40 and 80 mg/kg), TPCA1 (10 and 20 mg/kg), BOT64 (30 and 60 mg/kg) for a duration of 6 days (n = 10 for each group). (A-F) Body weights were measured every two days. (G-K) Serum concentrations of different groups of mice. (G) IL-1β, (H) IL-6, (I) IL-15, (J) IL-18, and (K) TNF-α. *P < 0.05
C57BL/6 mice were administrated with MTOB (400 and 800 mg/kg), NSC95397 (2 and 4 mg/kg), C646 (5 and 10 mg/kg), A-485 (40 and 80 mg/kg), TPCA1 (10 and 20 mg/kg), and BOT64 (30 and 60 mg/kg) for a duration of 6 days (n=10 for each group). (A) Serum concentration of IFN-γ in different groups of mice. (B) Serum BUN concentration. (C) Activities of ALT, AST, and ALP in serum. (D) Serum creatinine concentration. (E) Representative H&E staining images of lung, liver, kidney, and heart from the following groups of mice: Control, MTOB (800 mg/kg), NSC95397 (4 mg/kg), C646 (10 mg/kg), A-485 (80 mg/kg), TPCA1 (20 mg/kg), and BOT64 (60 mg/kg). Bars=100 μm. For the significant difference analysis in B-D, all drug-treated groups were compared with the Control group of mice. *P<0.05; **P<0.01; ***P<0.001.
[…] (A) Serum ALT activity. (B) Serum AST activity. (C) Serum ALP activity. (D) Serum BUN concentration. (E) Serum creatinine concentration. (F) Body weights were recorded every two days. (G) Representative H&E staining images of lung, liver, kidney, and heart. Bars=100 μm.

[1] = PNSC928 0, 5, 10, and 20 mg/kg at two-day intervals for 6 days

| Structure (SMILES) | Body weight | further results |
| --- | --- | --- |
| CC(=CCCC1=CCC(C2COC(=O)C2)OC1O)CCC1=C(C)CCCC1(C)C (stereo not shown) [PNSC928] |  | Activities and levels of ALT, AST, ALP, BUN, and creatinine [1]: no discernible alterations; Histological examination of lung, heart, liver, and kidney [1]: no conspicuous damage; Mouse body weights [1]: did not affect mouse body weights; Behavioral activities (feeding, balance ability, sleeping patterns) (PNSC928 0, 5, 10, and 20 mg/kg at two-day intervals for 6 days, data not shown): did not affect |
| CNC(=O)Nc1ccc2c(c1)CC[C@@]21OC(=O)N(CC(=O)N(Cc2ccc(F)cc2)[C@@H](C)C(F)(F)F)C1=O [A-485] | significant decrease in body weight |  |
| CSCCC(=O)C(=O)O [MTOB] | significant decrease in body weight |  |
| CC1=NN(c2ccc(C(=O)O)cc2)C(=O)/C1=C\c1ccc(-c2cc(C)c(C)cc2[N+](=O)[O-])o1 [C646] | significant decrease in body weight |  |
| O=C1C(SCCO)=C(SCCO)C(=O)c2ccccc21 [NSC95397] | significant decrease in body weight |  |
| CC1(C)CC(=O)c2sc(=Nc3ccccc3)oc2C1 [BOT64] | significant decrease in body weight |  |
| NC(=O)Nc1sc(-c2ccc(F)cc2)cc1C(N)=O [TPCA1] | significant decrease in body weight |  |
